Laboratory results as given in paper PMC7206119, “RIP1 inhibition blocks inflammatory diseases but not tumor growth or metastases” (Cell Death and Differentiation, 2019).

Experiments:
Test in all cases: biochemical
Parameters in all cases: DiscoverX kinase panel, active-site competition binding (KINOMEscan type), percent of control at one concentration
Conditions in all cases: competition binding, percent of control
[1] = target: T1, DCAMKL3 (Homo sapiens, UniProt Q9C098)
T1 construct: gene DCLK3

[2] = target: T2, JNK1 (Homo sapiens, UniProt P45983)
T2 construct: gene MAPK8

[3] = target: NEK3 (Homo sapiens, UniProt P51956)
[4] = target: ALK (Homo sapiens, UniProt Q9UM73)
[5] = target: FGFR4 (Homo sapiens, UniProt P22455)
[6] = target: CSNK1D (Homo sapiens, UniProt P48730)
[7] = target: MAK (Homo sapiens, UniProt P20794)
[8] = target: AXL (Homo sapiens, UniProt P30530)
[9] = target: TAOK1 (Homo sapiens, UniProt Q7L7X3)
[10] = target: STK39 (Homo sapiens, UniProt Q9UEW8)
[11] = target: PRKCQ (Homo sapiens, UniProt Q04759)
[12] = target: NLK (Homo sapiens, UniProt Q9UBE8)
[13] = target: SRPK2 (Homo sapiens, UniProt P78362)
[14] = target: T3, RSK3(Kin.Dom.1-N-terminal) (Homo sapiens, UniProt Q15349)
T3 construct: gene RPS6KA2; Kin.Dom.1-N-terminal

[15] = target: T4, VEGFR2 (Homo sapiens, UniProt P35968)
T4 construct: gene KDR

[16] = target: T5, ABL1(Q252H)-nonphosphorylated (Homo sapiens, UniProt P00519, Q252H)
T5 construct: nonphosphorylated

[17] = target: CLK2 (Homo sapiens, UniProt P49760)
[18] = target: T6, RPS6KA5(Kin.Dom.2-C-terminal) (Homo sapiens, UniProt O75582)
T6 construct: Kin.Dom.2-C-terminal

[19] = target: T7, JAK1(JH2domain-pseudokinase) (Homo sapiens, UniProt P23458)
T7 construct: JH2domain-pseudokinase

[20] = target: T8, TRKA (Homo sapiens, UniProt P04629)
T8 construct: gene NTRK1

[21] = target: EGFR(G719S) (Homo sapiens, UniProt P00533, G719S)

T3 sequence (Q15349 whole entry): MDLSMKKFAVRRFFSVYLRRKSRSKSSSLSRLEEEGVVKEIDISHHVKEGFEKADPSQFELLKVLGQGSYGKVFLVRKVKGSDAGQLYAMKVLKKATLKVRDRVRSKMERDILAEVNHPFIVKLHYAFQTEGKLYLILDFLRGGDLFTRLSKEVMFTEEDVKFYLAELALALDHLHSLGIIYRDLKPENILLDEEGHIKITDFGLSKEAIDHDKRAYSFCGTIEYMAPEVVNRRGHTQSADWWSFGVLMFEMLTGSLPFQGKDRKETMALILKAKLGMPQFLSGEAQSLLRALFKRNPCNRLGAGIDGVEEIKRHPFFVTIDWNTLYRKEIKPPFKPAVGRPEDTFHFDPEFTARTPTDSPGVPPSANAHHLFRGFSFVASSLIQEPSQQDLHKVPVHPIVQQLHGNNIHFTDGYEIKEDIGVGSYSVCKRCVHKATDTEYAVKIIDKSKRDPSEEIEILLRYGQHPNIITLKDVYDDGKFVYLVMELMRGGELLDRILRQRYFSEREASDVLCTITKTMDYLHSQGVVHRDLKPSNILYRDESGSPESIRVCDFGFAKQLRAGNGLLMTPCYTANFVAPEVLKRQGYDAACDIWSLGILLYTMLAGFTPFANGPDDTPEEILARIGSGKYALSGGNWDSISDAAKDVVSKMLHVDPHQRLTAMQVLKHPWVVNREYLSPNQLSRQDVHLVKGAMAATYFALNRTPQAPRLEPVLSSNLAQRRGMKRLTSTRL
T2 sequence (P45983 whole entry): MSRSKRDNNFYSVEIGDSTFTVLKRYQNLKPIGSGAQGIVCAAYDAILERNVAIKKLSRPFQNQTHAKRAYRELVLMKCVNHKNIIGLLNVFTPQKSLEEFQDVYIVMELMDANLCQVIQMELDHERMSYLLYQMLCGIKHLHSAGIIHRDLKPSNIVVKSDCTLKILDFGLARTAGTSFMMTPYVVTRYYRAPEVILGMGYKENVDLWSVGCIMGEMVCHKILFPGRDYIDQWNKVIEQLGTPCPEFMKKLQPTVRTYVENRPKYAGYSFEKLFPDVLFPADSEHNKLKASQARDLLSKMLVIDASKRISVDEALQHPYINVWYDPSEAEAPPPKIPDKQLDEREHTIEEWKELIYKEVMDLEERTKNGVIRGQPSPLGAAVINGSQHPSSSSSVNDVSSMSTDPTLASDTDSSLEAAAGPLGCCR
FGFR4, sequence (P22455 whole entry): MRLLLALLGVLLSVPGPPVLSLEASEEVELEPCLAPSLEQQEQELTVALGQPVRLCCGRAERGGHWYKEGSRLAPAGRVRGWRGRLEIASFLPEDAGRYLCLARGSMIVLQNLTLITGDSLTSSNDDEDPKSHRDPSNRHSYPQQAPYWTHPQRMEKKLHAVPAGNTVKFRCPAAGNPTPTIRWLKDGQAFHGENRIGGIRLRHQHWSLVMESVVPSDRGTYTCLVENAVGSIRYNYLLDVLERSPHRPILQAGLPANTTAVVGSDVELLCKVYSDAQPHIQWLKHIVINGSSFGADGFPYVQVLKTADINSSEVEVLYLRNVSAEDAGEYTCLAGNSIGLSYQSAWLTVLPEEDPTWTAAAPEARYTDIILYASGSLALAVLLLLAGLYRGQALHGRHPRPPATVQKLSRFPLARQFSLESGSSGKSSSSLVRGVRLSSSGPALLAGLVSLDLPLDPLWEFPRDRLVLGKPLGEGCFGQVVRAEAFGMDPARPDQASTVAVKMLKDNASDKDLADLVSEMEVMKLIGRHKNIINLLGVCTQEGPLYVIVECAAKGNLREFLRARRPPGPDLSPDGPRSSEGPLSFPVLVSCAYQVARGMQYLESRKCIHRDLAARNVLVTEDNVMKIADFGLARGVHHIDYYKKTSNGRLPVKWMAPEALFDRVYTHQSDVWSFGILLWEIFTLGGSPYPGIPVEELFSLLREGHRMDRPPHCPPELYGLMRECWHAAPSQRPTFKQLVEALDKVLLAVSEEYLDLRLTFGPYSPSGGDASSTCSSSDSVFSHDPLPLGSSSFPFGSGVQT
PRKCQ, sequence (Q04759 whole entry): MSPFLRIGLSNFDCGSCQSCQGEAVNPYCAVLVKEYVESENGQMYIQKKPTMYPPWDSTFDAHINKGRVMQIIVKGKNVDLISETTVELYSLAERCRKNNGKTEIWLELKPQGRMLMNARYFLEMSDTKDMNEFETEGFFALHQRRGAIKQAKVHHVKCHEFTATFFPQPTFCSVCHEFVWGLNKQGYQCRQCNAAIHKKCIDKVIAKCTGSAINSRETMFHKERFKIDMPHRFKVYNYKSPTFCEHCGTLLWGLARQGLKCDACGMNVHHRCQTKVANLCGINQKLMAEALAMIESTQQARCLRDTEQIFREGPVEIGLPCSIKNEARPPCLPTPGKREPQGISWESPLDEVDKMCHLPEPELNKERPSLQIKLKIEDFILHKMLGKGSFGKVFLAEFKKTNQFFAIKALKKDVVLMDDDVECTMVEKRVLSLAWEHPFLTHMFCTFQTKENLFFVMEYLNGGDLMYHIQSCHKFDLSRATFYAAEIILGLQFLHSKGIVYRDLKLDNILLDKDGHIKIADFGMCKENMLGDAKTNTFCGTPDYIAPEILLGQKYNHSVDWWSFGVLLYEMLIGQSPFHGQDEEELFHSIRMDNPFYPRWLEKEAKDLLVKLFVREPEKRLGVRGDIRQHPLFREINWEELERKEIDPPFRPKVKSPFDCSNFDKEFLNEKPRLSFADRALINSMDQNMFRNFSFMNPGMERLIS
ALK, sequence (Q9UM73 whole entry): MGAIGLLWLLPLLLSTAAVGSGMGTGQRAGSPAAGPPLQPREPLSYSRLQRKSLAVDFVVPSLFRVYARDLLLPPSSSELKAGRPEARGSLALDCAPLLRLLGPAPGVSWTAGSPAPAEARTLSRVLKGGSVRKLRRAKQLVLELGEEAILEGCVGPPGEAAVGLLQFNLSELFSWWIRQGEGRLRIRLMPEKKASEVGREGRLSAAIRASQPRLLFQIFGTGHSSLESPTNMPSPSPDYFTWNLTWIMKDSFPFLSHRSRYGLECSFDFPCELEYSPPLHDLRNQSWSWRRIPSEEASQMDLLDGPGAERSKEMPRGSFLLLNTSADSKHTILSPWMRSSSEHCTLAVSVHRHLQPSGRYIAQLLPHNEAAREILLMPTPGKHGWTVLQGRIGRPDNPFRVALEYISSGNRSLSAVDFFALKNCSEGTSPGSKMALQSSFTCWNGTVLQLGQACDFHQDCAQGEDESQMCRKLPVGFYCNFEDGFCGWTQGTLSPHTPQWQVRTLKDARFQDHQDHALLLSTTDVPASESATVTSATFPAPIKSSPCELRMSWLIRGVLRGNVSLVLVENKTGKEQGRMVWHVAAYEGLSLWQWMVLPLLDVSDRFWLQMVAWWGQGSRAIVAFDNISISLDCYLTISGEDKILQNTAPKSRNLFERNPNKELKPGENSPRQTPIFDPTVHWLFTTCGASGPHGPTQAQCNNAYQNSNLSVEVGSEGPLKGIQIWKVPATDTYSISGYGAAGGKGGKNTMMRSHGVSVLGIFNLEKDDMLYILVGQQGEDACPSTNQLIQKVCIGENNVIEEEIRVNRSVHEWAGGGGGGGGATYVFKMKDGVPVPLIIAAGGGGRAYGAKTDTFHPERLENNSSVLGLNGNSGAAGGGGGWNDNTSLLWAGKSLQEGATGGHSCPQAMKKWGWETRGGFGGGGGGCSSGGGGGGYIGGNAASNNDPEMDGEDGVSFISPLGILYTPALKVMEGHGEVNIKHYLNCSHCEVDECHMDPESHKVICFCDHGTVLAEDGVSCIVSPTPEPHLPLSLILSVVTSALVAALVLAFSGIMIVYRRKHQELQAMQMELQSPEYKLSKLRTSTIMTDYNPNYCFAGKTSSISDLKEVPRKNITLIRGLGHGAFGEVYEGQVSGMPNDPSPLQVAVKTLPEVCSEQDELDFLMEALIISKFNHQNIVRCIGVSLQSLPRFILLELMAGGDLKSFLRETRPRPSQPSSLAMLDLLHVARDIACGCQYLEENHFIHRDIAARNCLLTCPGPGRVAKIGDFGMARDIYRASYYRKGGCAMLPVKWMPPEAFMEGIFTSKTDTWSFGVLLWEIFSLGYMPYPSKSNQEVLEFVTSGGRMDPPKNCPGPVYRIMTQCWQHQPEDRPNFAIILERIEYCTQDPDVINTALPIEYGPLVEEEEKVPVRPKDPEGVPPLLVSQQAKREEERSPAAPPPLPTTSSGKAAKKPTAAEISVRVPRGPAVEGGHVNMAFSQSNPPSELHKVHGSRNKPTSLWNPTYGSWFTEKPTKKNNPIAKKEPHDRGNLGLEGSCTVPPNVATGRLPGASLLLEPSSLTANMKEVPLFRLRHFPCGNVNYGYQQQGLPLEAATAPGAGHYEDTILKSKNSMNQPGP
T1 sequence (Q9C098 whole entry): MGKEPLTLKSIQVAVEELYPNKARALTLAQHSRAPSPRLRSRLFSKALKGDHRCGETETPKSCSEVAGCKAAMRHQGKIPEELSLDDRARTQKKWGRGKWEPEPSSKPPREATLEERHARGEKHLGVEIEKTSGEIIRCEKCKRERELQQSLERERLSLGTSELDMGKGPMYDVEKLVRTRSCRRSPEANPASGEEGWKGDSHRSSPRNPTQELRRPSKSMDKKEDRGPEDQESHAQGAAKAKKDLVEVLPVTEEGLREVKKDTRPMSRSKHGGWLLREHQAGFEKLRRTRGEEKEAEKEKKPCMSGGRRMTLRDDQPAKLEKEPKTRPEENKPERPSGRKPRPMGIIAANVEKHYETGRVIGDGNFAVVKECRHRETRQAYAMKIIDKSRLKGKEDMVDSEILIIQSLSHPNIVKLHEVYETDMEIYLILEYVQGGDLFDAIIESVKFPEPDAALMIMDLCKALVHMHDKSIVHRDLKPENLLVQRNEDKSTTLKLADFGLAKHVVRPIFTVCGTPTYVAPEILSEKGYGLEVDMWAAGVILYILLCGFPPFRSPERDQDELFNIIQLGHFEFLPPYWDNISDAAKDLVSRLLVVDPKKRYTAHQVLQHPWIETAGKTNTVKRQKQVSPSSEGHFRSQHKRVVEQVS

COc1cc2c(cn1)N(C)C(=O)[C@@H](NC(=O)c1nc3n(n1)[C@H](c1ccccc1)CC3)CC2 [GNE684, (S)-N-((S)-7-methoxy-1-methyl-2-oxo-2,3,4,5-tetrahydro-1H-pyrido[3,4-b]azepin-3-yl)-5-phenyl-6,7-dihydro-5H-pyrrolo[1,2-b][1,2,4]triazole-2-carboxamide]
remaining binding at 10 µM [1]: 92%
remaining binding at 10 µM [2]: 97%
remaining binding at 10 µM [3]: 94%
remaining binding at 10 µM [4]: 81%
remaining binding at 10 µM [5]: 88%
remaining binding at 10 µM [6]: 100%
remaining binding at 10 µM [7]: 96%
remaining binding at 10 µM [8]: 96%
remaining binding at 10 µM [9]: 100%
remaining binding at 10 µM [10]: 97%
remaining binding at 10 µM [11]: 100%
remaining binding at 10 µM [12]: 94%
remaining binding at 10 µM [13]: 100%
remaining binding at 10 µM [14]: 92%
remaining binding at 10 µM [15]: 93%
remaining binding at 10 µM [16]: 68%
remaining binding at 10 µM [17]: 74%
remaining binding at 10 µM [18]: 100%
remaining binding at 10 µM [19]: 48%
remaining binding at 10 µM [20]: 87%
remaining binding at 10 µM [21]: 100%
